Assay results taken from patent US11708344B2, “Flavone derivatives for the treatment and prophylaxis of hepatitis B virus disease” (Hoffmann-La Roche Inc., priority 2018, dated 2023).
Where two headings read alike, the source gives them in different places.

Columns and labels:
[1] = test system: HBeAg (surrogate marker for cccDNA) in HepDES19 cells; assay: Engineered HepDES19 primary screen assay (HBeAg ELISA); assay type: cell-based, HBV
Outline: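 IC50 values come from 4-parameter logistic fits of HBeAg ELISA signal, the cccDNA surrogate, with CCK-8 run in parallel for viability. Compounds at half-log dilutions with 1% DMSO were applied for 5 days at 37 °C to HepDES19 cells previously cultured 8 days without Tet.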

[2] = Human microsome stability assay; assay type: in vitro ADME; conditions: human liver microsomes, 1 μM test compound, 0.5 mg/mL microsomal protein, 37° C., pH 7.4, 0-30 minutes
Outline: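 Parent compound remaining was measured by LC-MS/MS at 0, 3, 6, 9, 15 and 30 min, following ACN quench. Reactions held 1 μM compound and 0.5 mg/mL human liver microsomal protein in pH 7.4 phosphate buffer at 37 °C, started by NADPH regeneration (1 mM NADP, 1 mM MgCl2); controls lacked NADPH.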

[3] = Hepatitis B virus, HepDES19, 120 h, read-out: IC50 (HBeAg level, HepDES19 primary screen assay), HepDES19 cells, 5 days compound incubation, HBeAg ELISA

Structure (SMILES): Cc1cc(-c2cc(=O)c3cccc(Cl)c3o2)c(OCC(=O)N2CC[C@@H](O)C2)cc1Br [Example A089, 2-[4-bromo-2-[2-[(3R)-3-hydroxypyrrolidin-1-yl]-2-oxo-ethoxy]-5-methyl-phenyl]-8-chloro-chromen-4-one]
- IC50 [1, 3]: 11.9 µM
- Clearance of Human microsome [2]: 6.69 mL/min/kg

Structure (SMILES): O=C(O)CCCOc1cc(C(F)(F)F)ccc1-c1cc(=O)c2c(O)ccc(Cl)c2o1 [Example B041, 4-[2-(8-chloro-5-hydroxy-4-oxo-chromen-2-yl)-5-(trifluoromethyl)phenoxy]butanoic acid]
- IC50 [1, 3]: 0.289 µM
- Clearance of Human microsome [2]: 6.15 mL/min/kg

Structure (SMILES): COc1cc(O[C@H]2C[C@@H](C(=O)NS(=O)(=O)C3CC3)C2)c(-c2cc(=O)c3cccc(Cl)c3o2)cc1Br [Example B056-A, Cis-3-[4-bromo-2-(8-chloro-4-oxo-chromen-2-yl)-5-methoxy-phenoxy]-N-cyclopropylsulfonyl-cyclobutanecarboxamide]
- IC50 [1, 3]: 9.44 µM
- Clearance of Human microsome [2]: 6.48 mL/min/kg

Structure (SMILES): O=C(O)CCCCOc1cc(C(F)(F)F)ccc1-c1cc(=O)c2cccc(Cl)c2o1 [Example A065, 5-[2-(8-chloro-4-oxo-chromen-2-yl)-5-(trifluoromethyl)phenoxy]pentanoic acid]
- IC50 [1, 3]: 1.9 µM
- Clearance of Human microsome [2]: 6.15 mL/min/kg

Structure (SMILES): CC(C)(COc1cc(Br)ccc1-c1cc(=O)c2cccc(Cl)c2o1)CO[C@H]1C[C@H](C(=O)O)C1 [Example C110-B, trans-3-[3-[5-bromo-2-(8-chloro-4-oxo-chromen-2-yl)phenoxy]-2,2-dimethyl-propoxy]cyclobutanecarboxylic acid]
- IC50 [1, 3]: 3.74 µM
- Clearance of Human microsome [2]: 6.15 mL/min/kg

Structure (SMILES): O=C(O)CCOc1cc(OC(F)(F)F)ccc1-c1cc(=O)c2ccc(C(F)(F)F)c(Cl)c2o1 [Example A042, 3-[2-[8-chloro-4-oxo-7-(trifluoromethyl)chromen-2-yl]-5-(trifluoromethoxy)phenoxy]propanoic acid]
- IC50 [1, 3]: 17.8 µM
- Clearance of Human microsome [2]: 6.15 mL/min/kg

Structure (SMILES): Cc1cc(-c2cc(=O)c3c(O)ccc(Cl)c3o2)c(O[C@H]2C[C@H](C(=O)O)C2)cc1Br [Example B040-B, trans-3-[5-bromo-2-(8-chloro-5-hydroxy-4-oxo-chromen-2-yl)-4-methyl-phenoxy]cyclobutanecarboxylic acid]
- IC50 [1, 3]: 2.93 µM
- Clearance of Human microsome [2]: 6.29 mL/min/kg

Structure (SMILES): Cc1cc(OCCC(=O)O)c(-c2cc(=O)c3cccc(Cl)c3o2)cc1OC(F)(F)F [Example A019, 3-[2-(8-chloro-4-oxo-chromen-2-yl)-5-methyl-4-(trifluoromethoxy)phenoxy]propanoic acid]
- IC50 [1, 3]: 2.96 µM
- Clearance of Human microsome [2]: 6.15 mL/min/kg

Structure (SMILES): CCOc1ccc(-c2cc(=O)c3c(C(F)(F)F)ccc(Cl)c3o2)c(OCCO[C@H]2C[C@@H](C(=O)O)C2)c1 [Example C095, cis-3-[2-[2-[8-chloro-4-oxo-5-(trifluoromethyl)chromen-2-yl]-5-ethoxy-phenoxy]ethoxy]cyclobutanecarboxylic acid]
- IC50 [1, 3]: 3.29 µM
- Clearance of Human microsome [2]: 9.62 mL/min/kg

Structure (SMILES): O=C(O)COCC(O)COc1cc(C(F)(F)F)ccc1-c1cc(=O)c2cccc(Cl)c2o1 (centres unmarked) [Example C115, 2-[3-[2-(8-chloro-4-oxo-chromen-2-yl)-5-(trifluoromethyl)phenoxy]-2-hydroxy-propoxy]acetic acid]
- IC50 [1, 3]: 19.2 µM
- Clearance of Human microsome [2]: 6.15 mL/min/kg

Structure (SMILES): COc1cc(-c2cc(=O)c3cccc(Cl)c3o2)c(OCCCC(=O)O)cc1Br [Example A058, 4-[5-bromo-2-(8-chloro-4-oxo-chromen-2-yl)-4-methoxy-phenoxy]butanoic acid]
- IC50 [1, 3]: 0.549 µM
- Clearance of Human microsome [2]: 6.15 mL/min/kg

Structure (SMILES): O=c1cc(-c2ccccc2OCCO[C@H]2C[C@@H](C(=O)O)C2)oc2c(C(F)(F)F)cccc12 [Example C047-A, Cis-3-[2-[2-[4-oxo-8-(trifluoromethyl)chromen-2-yl]phenoxy]ethoxy]cyclobutanecarboxylic acid]
- IC50 [1, 3]: 16.6 µM
- Clearance of Human microsome [2]: 6.15 mL/min/kg

Structure (SMILES): O=C(COc1cc(C(F)(F)F)ccc1-c1cc(=O)c2cccc(Cl)c2o1)NCCO [Example A086, 2-[2-(8-chloro-4-oxo-chromen-2-yl)-5-(trifluoromethyl)phenoxy]-N-(2-hydroxyethyl)acetamide]
- IC50 [1, 3]: 1 µM
- Clearance of Human microsome [2]: 9.68 mL/min/kg

Structure (SMILES): O=C(O)[C@@H]1CC[C@@H](Oc2cc(Br)ccc2-c2cc(=O)c3cccc(Cl)c3o2)C1 (relative stereo) [Example B028-B, Trans-3-[5-bromo-2-(8-chloro-4-oxo-chromen-2-yl)phenoxy]cyclopentanecarboxylic acid]
- IC50 [1, 3]: 0.213 µM
- Clearance of Human microsome [2]: 9.98 mL/min/kg

Structure (SMILES): O=C(O)CC1(COc2cc(Br)ccc2-c2cc(=O)c3cccc(Cl)c3o2)CC1 [Example A069, 2-[1-[[5-bromo-2-(8-chloro-4-oxo-chromen-2-yl)phenoxy]methyl]cyclopropyl]acetic acid]
- IC50 [1, 3]: 2.73 µM
- Clearance of Human microsome [2]: 6.15 mL/min/kg

Structure (SMILES): Cc1ccc(-c2cc(=O)c3cccc(Cl)c3o2)c(OCC(=O)N2CCC[C@H]2C(=O)NS(C)(=O)=O)c1 [Example A093, (2S)-1-[2-[2-(8-chloro-4-oxo-chromen-2-yl)-5-methyl-phenoxy]acetyl]-N-methylsulfonyl-pyrrolidine-2-carboxamide]
- IC50 [1, 3]: 1.32 µM
- Clearance of Human microsome [2]: 6.15 mL/min/kg

Structure (SMILES): O=c1cc(-c2ncc(Br)cc2O[C@H]2C[C@H](C(=O)O)C2)oc2c(Cl)cccc12 [Example B029, Trans-3-[[5-bromo-2-(8-chloro-4-oxo-chromen-2-yl)-3-pyridyl]oxy]cyclobutanecarboxylic acid]
- IC50 [1, 3]: 14.1 µM
- Clearance of Human microsome [2]: 6.15 mL/min/kg

Structure (SMILES): O=C(O)[C@H]1CCN(C(=O)COCCOc2cc(Br)ccc2-c2cc(=O)c3cccc(Cl)c3o2)C1 [Example C112, (3S)-1-[2-[2-[5-bromo-2-(8-chloro-4-oxo-chromen-2-yl)phenoxy]ethoxy]acetyl]pyrrolidine-3-carboxylic acid]
- IC50 [1, 3]: 11.4 µM
- Clearance of Human microsome [2]: 6.15 mL/min/kg

Structure (SMILES): Cc1cc(-c2cc(=O)c3cccc(Cl)c3o2)c(OCCOCC(=O)O)cc1Br [Example C021, 2-[2-[5-bromo-2-(8-chloro-4-oxo-chromen-2-yl)-4-methyl-phenoxy]ethoxy]acetic acid]
- IC50 [1, 3]: 9.25 µM
- Clearance of Human microsome [2]: 7.66 mL/min/kg

Structure (SMILES): O=c1cc(-c2cc(Br)c(F)cc2OCCO[C@H]2C[C@@H](C(=O)O)C2)oc2c(Cl)cccc12 [Example C032-A, Cis-3-[2-[4-bromo-2-(8-chloro-4-oxo-chromen-2-yl)-5-fluoro-phenoxy]ethoxy]cyclobutanecarboxylic acid]
- IC50 [1, 3]: 19.2 µM
- Clearance of Human microsome [2]: 9.6 mL/min/kg

Structure (SMILES): COc1cc(OCC(=O)NS(=O)(=O)C2CC2)c(-c2cc(=O)c3cccc(Cl)c3o2)cc1OC [Example A091, 2-[2-(8-chloro-4-oxo-chromen-2-yl)-4,5-dimethoxy-phenoxy]-N-cyclopropylsulfonyl-acetamide]
- IC50 [1, 3]: 0.888 µM
- Clearance of Human microsome [2]: 6.15 mL/min/kg

Structure (SMILES): O=C(O)C1CCCN1C(=O)COc1cc(C(F)(F)F)ccc1-c1cc(=O)c2cccc(Cl)c2o1 (stereo in doubt) [Example A082, (2S)-1-[2-[2-(8-chloro-4-oxo-chromen-2-yl)-5-(trifluoromethyl)phenoxy]acetyl]pyrrolidine-2-carboxylic acid]
- IC50 ([1]; read-out: IC50 (HBeAg level, HepDES19 primary screen assay), HepDES19 cells, 5 days compound incubation, HBeAg ELISA): 1.19 µM
- Clearance of Human microsome [2]: 6.15 mL/min/kg

Structure (SMILES): O=C(O)[C@@H]1C[C@H](Oc2cc(C(F)(F)F)ccc2-c2cc(=O)c3cccc(Cl)c3o2)CN1S(=O)(=O)C1CC1 [Example B078, (2S,4S)-4-[2-(8-chloro-4-oxo-chromen-2-yl)-5-(trifluoromethyl)phenoxy]-1-cyclopropylsulfonyl-pyrrolidine-2-carboxylic acid]
- IC50 [1, 3]: 0.541 µM
- Clearance of Human microsome [2]: 6.15 mL/min/kg

Structure (SMILES): CC1(C)C(=O)Nc2cc(-c3cc(=O)c4cccc(Cl)c4o3)c(OCCO[C@H]3C[C@@H](C(=O)O)C3)cc21 [Example C092, cis-3-[2-[6-(8-chloro-4-oxo-chromen-2-yl)-3,3-dimethyl-2-oxo-indolin-5-yl]oxyethoxy]cyclobutanecarboxylic acid]
- IC50 [1, 3]: 11.2 µM
- Clearance of Human microsome [2]: 6.15 mL/min/kg

Structure (SMILES): O=c1cc(-c2ccc(Br)cc2OCCCO[C@H]2C[C@@H](C(=O)O)C2)oc2c(Cl)cccc12 [Example C056-A, Cis-3-[3-[5-bromo-2-(8-chloro-4-oxo-chromen-2-yl)phenoxy]propoxy]cyclobutanecarboxylic acid]
- IC50 [1, 3]: 2.39 µM
- Clearance of Human microsome [2]: 6.15 mL/min/kg

Structure (SMILES): COc1cc(OCCO[C@H]2C[C@@H](C(=O)O)C2)c(-c2cc(=O)c3cccc(Cl)c3o2)cc1O [Example C083, cis-3-[2-[2-(8-chloro-4-oxo-chromen-2-yl)-4-hydroxy-5-methoxy-phenoxy]ethoxy]cyclobutanecarboxylic acid]
- IC50 [1, 3]: 4.59 µM
- Clearance of Human microsome [2]: 6.15 mL/min/kg

Structure (SMILES): O=c1cc(-c2ccc(C(F)(F)F)cc2O[C@H]2C[C@@H](C(=O)O)C2)oc2c(Cl)ccc(O)c12 [Example B038-A, Cis-3-[2-(8-chloro-5-hydroxy-4-oxo-chromen-2-yl)-5-(trifluoromethyl)phenoxy]cyclobutanecarboxylic acid]
- IC50 [1, 3]: 1.05 µM
- Clearance of Human microsome [2]: 6.84 mL/min/kg

Structure (SMILES): O=C(O)COCCCOc1cc(C(F)(F)F)ccc1-c1cc(=O)c2cccc(Cl)c2o1 [Example C001, 2-[3-[2-(8-chloro-4-oxo-chromen-2-yl)-5-(trifluoromethyl)phenoxy]propoxy]acetic acid]
- IC50 [1, 3]: 3.05 µM
- Clearance of Human microsome [2]: 6.15 mL/min/kg
